From US8758825B2, “Sequestered antagonist formulations” (Purdue Pharma L.P., priority 2001, dated 2014)

Legend:
[1] = in comparison to a 15 mg dose of hydrocodone
Description: In certain preferred embodiments, the opioid agonist is oxycodone or hydrocodone.

[2] = cited from earlier work; for Duration of action: after oral doses

| Compound | Equianalgesic dose, Calculated Dose [1] [mg] | further results |
| --- | --- | --- |
| COc1ccc2c3c1OC1C(=O)CC[C@H]4[C@@H](C2)N(C)CC[C@]314 (stereo partly shown) [Hydrocodone, 4,5-epoxy-3-methoxy-17-methylmorphinan-6-one] | 15.0 |  |
| COc1ccc2c3c1O[C@H]1C(=O)CC[C@@]4(O)[C@@H](C2)N(C)CC[C@]314 [Oxycodone, 4,5-expoxy-14-hydroxy-3-methoxy-17-methylmorphinan-6-one] | 13.5 |  |
| CN1CC[C@]23CCCC[C@H]2[C@H]1Cc1ccc(O)cc13 [Levorphanol] | 1.8 |  |
| CCC(=O)C(CC(C)N(C)C)(c1ccccc1)c1ccccc1 (stereo not shown) [Methadone] | 9.0 |  |
| O=C1CC[C@@]2(O)[C@H]3Cc4ccc(O)c5c4[C@@]2(CCN3CC2CC2)[C@H]1O5 [naltrexone] |  | Duration of action [2]: ~24 h; Protein binding ([2]; in vivo): approximately 21%; Oral bioavailability ([2]; oral administration): 5-40%; Time of absorption ([2]; oral administration): ≤ 1 h |
| COc1ccc2c3c1O[C@H]1[C@@H](O)C=C[C@H]4[C@@H](C2)N(C)CC[C@@]341 [Codeine] | 90.0 |  |
| C[C@H]1[C@H]2Cc3ccc(O)cc3[C@]1(C)CCN2CC1CC1 [cyclazocine] |  | Duration of action [2]: ~24 h |
